Results as given in paper PMC11167047 (Cell Death Discovery, 2024).

What was measured:
Assay in all cases: kinome screen (33PanQinase)
Assay type in all cases: biochemical
PLK3 = molecular target: T1, PLK3 (Homo sapiens, UniProt Q9H4B4)
T1 construct: purchased Reaction Biology Europe GmbH (formerly ProQinase)
Method: (§1) The Kinome Screening was performed by Reaction Biology Europe GmbH (http://reactionbiology.com; Freiburg i. Br., Germany).

PRK2 = molecular target: T2, PRK2 (Homo sapiens, UniProt Q16513)
T2 construct: purchased Reaction Biology Europe GmbH (formerly ProQinase)
T2 sequence (Q16513 whole entry): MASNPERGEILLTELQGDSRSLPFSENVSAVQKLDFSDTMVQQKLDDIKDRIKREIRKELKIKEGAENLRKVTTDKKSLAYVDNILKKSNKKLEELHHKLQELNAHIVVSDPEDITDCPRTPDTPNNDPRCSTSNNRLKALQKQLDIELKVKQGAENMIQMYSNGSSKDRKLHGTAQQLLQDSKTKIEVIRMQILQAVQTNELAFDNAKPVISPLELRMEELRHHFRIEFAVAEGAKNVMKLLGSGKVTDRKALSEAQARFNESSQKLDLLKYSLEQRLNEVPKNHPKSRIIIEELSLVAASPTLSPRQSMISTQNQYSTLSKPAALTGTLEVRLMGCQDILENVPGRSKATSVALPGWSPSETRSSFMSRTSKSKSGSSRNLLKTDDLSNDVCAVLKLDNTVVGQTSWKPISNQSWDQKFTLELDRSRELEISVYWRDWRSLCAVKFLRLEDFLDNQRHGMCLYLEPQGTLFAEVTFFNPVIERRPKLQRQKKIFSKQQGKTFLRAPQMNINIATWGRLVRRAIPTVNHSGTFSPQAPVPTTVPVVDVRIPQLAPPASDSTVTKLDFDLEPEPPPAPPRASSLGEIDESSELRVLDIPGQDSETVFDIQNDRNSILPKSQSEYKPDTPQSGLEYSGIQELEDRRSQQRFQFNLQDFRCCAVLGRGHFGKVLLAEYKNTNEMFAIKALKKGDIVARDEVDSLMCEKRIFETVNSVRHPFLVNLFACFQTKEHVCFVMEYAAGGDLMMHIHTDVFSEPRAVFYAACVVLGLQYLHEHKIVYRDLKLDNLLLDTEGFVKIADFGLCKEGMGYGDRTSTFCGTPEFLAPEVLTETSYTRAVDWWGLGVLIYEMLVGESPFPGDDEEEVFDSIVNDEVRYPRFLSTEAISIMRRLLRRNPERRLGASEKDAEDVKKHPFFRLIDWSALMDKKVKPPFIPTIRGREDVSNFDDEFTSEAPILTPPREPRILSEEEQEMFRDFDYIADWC
Method: as §1

MYLK3 = molecular target: T3, MYLK3 (Homo sapiens, UniProt Q32MK0)
T3 construct: purchased Reaction Biology Europe GmbH (formerly ProQinase)
T3 sequence (Q32MK0 1-819): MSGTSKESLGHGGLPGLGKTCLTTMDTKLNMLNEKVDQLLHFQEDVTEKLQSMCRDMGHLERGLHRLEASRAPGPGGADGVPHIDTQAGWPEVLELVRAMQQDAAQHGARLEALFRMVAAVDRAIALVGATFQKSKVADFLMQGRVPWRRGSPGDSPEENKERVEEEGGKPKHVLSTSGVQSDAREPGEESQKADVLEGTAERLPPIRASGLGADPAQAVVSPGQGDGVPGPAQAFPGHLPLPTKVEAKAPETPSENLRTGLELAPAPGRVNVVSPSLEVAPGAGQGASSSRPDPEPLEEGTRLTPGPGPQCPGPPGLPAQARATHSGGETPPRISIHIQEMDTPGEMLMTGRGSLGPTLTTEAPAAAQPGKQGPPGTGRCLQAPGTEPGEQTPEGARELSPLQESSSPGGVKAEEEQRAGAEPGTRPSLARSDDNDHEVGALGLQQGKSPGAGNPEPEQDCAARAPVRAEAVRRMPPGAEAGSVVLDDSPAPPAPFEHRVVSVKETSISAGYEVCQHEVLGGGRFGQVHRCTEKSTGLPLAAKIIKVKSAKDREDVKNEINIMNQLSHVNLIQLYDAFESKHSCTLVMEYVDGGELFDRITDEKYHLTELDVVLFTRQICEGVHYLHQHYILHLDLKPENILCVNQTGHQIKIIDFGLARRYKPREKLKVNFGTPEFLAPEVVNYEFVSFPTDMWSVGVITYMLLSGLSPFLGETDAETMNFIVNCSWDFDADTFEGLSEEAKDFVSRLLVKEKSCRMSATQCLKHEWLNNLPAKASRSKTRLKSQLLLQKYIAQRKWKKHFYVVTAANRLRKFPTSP
Method: as §1

CDK5/p25NCK = molecular target: T4, CDK5/p25NCK (Homo sapiens, UniProt Q00535)
T4 construct: purchased Reaction Biology Europe GmbH (formerly ProQinase)
T4 sequence (Q00535 whole entry): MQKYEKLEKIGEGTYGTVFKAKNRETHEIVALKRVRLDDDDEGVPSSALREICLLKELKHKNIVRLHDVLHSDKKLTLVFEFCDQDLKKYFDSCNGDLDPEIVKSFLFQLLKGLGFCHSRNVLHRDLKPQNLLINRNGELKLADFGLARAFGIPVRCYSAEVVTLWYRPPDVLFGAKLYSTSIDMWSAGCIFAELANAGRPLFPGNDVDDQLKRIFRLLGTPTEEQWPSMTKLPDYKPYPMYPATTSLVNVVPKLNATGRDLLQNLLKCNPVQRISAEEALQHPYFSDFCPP
T4 sequence (Q15078 99-307 partner limits assumed): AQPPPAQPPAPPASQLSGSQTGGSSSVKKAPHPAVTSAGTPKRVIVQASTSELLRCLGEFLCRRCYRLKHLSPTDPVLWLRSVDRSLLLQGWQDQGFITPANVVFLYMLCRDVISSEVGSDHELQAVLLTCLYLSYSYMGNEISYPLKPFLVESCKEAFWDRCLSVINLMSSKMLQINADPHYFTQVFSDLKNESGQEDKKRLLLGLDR
Method: as §1

DYRK1A = molecular target: T5, DYRK1A (Homo sapiens, UniProt Q13627)
T5 construct: purchased Reaction Biology Europe GmbH (formerly ProQinase)
Method: as §1

RPS6KA1 = molecular target: T6, RPS6KA1 (Homo sapiens, UniProt Q15418)
T6 construct: purchased Reaction Biology Europe GmbH (formerly ProQinase)
Method: as §1

AKT3 = molecular target: T7, AKT3 (Homo sapiens, UniProt Q9Y243)
T7 construct: purchased Reaction Biology Europe GmbH (formerly ProQinase)
T7 sequence (Q9Y243 whole entry): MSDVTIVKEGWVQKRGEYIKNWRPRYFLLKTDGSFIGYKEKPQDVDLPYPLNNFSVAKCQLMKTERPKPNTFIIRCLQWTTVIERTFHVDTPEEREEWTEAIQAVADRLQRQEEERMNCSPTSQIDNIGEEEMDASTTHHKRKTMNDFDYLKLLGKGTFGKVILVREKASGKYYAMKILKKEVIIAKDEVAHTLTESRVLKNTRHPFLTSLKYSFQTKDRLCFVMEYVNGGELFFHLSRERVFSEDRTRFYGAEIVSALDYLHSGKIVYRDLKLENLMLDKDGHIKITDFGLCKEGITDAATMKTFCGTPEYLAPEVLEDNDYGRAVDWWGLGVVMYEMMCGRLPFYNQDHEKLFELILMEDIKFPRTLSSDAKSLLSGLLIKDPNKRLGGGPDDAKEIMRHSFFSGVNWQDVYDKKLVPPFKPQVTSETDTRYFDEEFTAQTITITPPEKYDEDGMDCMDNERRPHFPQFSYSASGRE
Method: as §1

TEC = molecular target: T8, TEC (Homo sapiens, UniProt P42680)
T8 construct: purchased Reaction Biology Europe GmbH (formerly ProQinase)
T8 sequence (P42680 1-631): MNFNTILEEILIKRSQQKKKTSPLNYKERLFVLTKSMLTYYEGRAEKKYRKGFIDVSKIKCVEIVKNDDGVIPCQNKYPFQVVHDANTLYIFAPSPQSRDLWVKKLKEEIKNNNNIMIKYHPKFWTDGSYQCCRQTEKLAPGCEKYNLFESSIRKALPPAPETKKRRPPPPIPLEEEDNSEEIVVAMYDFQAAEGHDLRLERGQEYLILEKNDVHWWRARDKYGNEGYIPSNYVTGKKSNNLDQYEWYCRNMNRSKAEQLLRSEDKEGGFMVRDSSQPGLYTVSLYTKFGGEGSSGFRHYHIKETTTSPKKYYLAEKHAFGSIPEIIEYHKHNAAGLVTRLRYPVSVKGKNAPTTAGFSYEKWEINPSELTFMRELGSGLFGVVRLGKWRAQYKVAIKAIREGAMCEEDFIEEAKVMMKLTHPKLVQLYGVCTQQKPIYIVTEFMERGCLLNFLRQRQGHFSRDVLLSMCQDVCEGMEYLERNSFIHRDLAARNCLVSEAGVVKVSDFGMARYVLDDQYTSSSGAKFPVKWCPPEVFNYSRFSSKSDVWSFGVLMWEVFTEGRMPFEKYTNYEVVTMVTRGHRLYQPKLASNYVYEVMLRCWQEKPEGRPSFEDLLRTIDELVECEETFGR
Method: as §1

MAP4K4 = molecular target: T9, MAP4K4 (Homo sapiens, UniProt O95819)
T9 construct: purchased Reaction Biology Europe GmbH (formerly ProQinase)
Method: as §1

PKCϴ = molecular target: T10, PKCϴ (Homo sapiens, UniProt Q04759)
T10 construct: purchased Reaction Biology Europe GmbH (formerly ProQinase)
T10 sequence (Q04759 whole entry): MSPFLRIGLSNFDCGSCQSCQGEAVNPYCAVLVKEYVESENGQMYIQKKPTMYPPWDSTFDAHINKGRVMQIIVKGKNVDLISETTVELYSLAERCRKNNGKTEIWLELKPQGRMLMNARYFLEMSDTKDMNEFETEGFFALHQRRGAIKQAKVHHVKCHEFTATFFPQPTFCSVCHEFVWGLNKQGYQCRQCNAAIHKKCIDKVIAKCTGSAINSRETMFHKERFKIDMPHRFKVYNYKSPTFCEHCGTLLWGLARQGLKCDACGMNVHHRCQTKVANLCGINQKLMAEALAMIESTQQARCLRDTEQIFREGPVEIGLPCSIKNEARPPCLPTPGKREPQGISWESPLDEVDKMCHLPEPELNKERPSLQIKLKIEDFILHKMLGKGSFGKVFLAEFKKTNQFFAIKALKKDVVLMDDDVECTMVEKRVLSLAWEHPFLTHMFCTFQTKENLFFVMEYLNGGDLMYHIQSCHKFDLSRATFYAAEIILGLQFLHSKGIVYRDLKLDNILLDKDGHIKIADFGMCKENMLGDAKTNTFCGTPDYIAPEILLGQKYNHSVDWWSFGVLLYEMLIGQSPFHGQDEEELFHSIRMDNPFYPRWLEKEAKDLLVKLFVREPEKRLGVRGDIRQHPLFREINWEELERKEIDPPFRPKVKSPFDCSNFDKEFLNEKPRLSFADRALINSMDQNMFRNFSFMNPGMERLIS
Method: as §1

KIT = molecular target: T11, KIT (Homo sapiens, UniProt P10721)
T11 construct: purchased Reaction Biology Europe GmbH (formerly ProQinase)
T11 sequence (P10721 26-976): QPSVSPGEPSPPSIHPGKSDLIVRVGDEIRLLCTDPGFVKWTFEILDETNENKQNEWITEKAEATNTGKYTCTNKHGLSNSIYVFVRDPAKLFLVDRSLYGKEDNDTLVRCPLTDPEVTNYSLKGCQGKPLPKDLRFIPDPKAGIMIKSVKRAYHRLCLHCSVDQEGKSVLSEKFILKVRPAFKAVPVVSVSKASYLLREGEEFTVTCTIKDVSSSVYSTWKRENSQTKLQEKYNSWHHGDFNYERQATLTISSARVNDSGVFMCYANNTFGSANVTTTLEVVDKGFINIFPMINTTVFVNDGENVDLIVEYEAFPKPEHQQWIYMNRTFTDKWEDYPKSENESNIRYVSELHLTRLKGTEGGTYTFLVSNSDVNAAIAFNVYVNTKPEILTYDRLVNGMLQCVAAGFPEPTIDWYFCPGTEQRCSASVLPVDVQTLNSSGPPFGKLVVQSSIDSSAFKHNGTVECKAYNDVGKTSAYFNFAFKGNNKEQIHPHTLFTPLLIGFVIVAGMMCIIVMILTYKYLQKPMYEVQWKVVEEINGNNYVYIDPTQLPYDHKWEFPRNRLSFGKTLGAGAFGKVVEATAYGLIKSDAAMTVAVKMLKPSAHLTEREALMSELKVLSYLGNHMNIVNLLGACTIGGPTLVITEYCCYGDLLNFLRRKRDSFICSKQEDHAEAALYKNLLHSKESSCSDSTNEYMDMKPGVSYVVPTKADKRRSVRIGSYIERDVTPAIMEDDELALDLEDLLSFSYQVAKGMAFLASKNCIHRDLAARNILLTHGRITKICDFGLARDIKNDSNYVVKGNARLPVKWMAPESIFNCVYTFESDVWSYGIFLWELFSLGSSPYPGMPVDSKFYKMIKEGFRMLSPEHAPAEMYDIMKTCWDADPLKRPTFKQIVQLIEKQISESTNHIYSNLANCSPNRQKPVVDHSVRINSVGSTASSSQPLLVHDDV
Method: as §1

MEK2 = molecular target: T12, MEK2 (Homo sapiens, UniProt P36507)
T12 construct: purchased Reaction Biology Europe GmbH (formerly ProQinase)
T12 sequence (P36507 whole entry): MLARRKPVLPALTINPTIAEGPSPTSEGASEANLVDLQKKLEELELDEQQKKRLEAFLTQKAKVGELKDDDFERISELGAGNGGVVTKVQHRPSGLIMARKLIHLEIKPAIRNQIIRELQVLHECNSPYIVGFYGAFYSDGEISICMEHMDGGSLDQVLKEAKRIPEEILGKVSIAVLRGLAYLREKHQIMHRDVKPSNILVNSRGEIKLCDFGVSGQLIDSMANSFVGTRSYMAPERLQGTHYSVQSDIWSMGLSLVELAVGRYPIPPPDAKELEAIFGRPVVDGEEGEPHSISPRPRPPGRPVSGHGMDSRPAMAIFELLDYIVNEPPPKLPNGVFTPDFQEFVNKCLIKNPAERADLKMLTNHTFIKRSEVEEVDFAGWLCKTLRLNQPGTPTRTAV
Method: as §1

T1 sequence (Q9H4B4 whole entry): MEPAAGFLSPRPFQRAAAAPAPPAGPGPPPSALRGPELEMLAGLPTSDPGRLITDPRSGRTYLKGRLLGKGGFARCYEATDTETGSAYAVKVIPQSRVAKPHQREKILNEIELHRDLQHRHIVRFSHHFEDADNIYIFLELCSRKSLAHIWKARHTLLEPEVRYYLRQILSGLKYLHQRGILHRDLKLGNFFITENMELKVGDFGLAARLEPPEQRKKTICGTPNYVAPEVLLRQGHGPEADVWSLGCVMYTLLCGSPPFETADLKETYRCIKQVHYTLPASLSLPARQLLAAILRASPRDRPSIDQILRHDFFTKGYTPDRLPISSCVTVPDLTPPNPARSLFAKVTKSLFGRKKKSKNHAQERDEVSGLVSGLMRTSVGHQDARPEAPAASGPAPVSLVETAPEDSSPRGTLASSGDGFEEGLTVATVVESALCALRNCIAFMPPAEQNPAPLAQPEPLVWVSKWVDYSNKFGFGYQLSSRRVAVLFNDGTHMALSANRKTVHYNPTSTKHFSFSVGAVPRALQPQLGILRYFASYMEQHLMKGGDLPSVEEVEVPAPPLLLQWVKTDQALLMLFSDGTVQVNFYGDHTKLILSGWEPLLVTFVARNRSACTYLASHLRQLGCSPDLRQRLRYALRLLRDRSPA

Structure (SMILES) | residual kinase activity (PLK3; 0.3 µM) | residual kinase activity (PRK2; 0.3 µM) | residual kinase activity (MYLK3; 0.3 µM) | residual kinase activity (CDK5/p25NCK; 0.3 µM) | residual kinase activity (DYRK1A; 0.3 µM) | residual kinase activity (RPS6KA1; 0.3 µM) | residual kinase activity (AKT3; 0.3 µM) | residual kinase activity (TEC; 0.3 µM) | residual kinase activity (MAP4K4; 0.3 µM) | residual kinase activity (PKCϴ; 0.3 µM) | residual kinase activity (KIT; 0.3 µM) | residual kinase activity (MEK2; 0.3 µM) | further results
COc1ccnc2[nH]cc(-c3cc(N)nc(N)c3)c12 [meriolin 16] | 92 % of control | 42 % of control | 77 % of control | 1 % of control | 2 % of control | 22 % of control | 82 % of control | 101 % of control | 29 % of control | 7 % of control | 96 % of control | 48 % of control | residual kinase activity (PLK3; 0.03 µM): 95 % of control; residual kinase activity (PRK2; 0.03 µM): 90 % of control; residual kinase activity (MYLK3; 0.03 µM): 119 % of control; residual kinase activity (CDK5/p25NCK; 0.03 µM): 16 % of control; residual kinase activity (DYRK1A; 0.03 µM): 11 % of control; residual kinase activity (RPS6KA1; 0.03 µM): 46 % of control; residual kinase activity (AKT3; 0.03 µM): 108 % of control; residual kinase activity (TEC; 0.03 µM): 110 % of control; residual kinase activity (MAP4K4; 0.03 µM): 76 % of control; residual kinase activity (PKCϴ; 0.03 µM): 40 % of control; residual kinase activity (KIT; 0.03 µM): 70 % of control; residual kinase activity (MEK2; 0.03 µM): 66 % of control
c1ccc(CNc2cc(-c3c[nH]c4ncccc34)ccn2)cc1 [meriolin 36] | 97 % of control | 8 % of control | 71 % of control | 0 % of control | 7 % of control | 20 % of control | 93 % of control | 114 % of control | 6 % of control | 2 % of control | 89 % of control | 13 % of control | residual kinase activity (PLK3; 3 µM): 87 % of control; residual kinase activity (PRK2; 3 µM): 0 % of control; residual kinase activity (MYLK3; 3 µM): 21 % of control; residual kinase activity (CDK5/p25NCK; 3 µM): 1 % of control; residual kinase activity (DYRK1A; 3 µM): 0 % of control; residual kinase activity (RPS6KA1; 3 µM): 10 % of control; residual kinase activity (AKT3; 3 µM): 42 % of control; residual kinase activity (TEC; 3 µM): 96 % of control; residual kinase activity (MAP4K4; 3 µM): 2 % of control; residual kinase activity (PKCϴ; 3 µM): 1 % of control; residual kinase activity (KIT; 3 µM): 46 % of control; residual kinase activity (MEK2; 3 µM): 3 % of control
